Publication PMC6410080 (Viruses, 2019)
Structures can show the parent of a compound that is named as a salt. Where two headings read alike, the source gives them in different places.

Tests used:
DENV-2 = DENV-2 infection assay / secondary screen (E protein staining); assay type: cell-based, dengue virus serotype 2; conditions: Dengue virus, DENV2, Huh-7, 24 h; for inhibition at 10 µM: read-out: % inhibition (DENV-2 screen)
SFV [1] = assay: microbe, parasite or virus in culture; assay type: cell-based, Semliki Forest virus; conditions: for inhibition at 10 µM / IC50: Semliki Forest virus; for inhibition at 10 µM: M-HeLa, 7 h, read-out: % inhibition (SFV screen); for IC50: HeLa Kyoto, read-out: IC50 SFV (7 h)
SFV [2] = assay type: cell-based, Semliki Forest virus
[3] = system: DID-labelled SFV hemifusion/fusion; assay type: cell-based, Semliki Forest virus; conditions: HeLa Kyoto, 10 μM (20 μM Raloxifene; Bafilomycin 100 nM), 40 min at 37 °C
Huh7 cells [4] = assay: MTT assay, Huh7 cells; conditions: for TC50 DENV-2 (7 + 17 h): Huh7, compounds 7 h then compound-free media 17 h; for TC50 DENV-2 (24 h): Huh7, compounds 24 h
viruses/VLPs tested = assay type: cell-based
EBOV VLP = assay: microbe, parasite or virus in culture; assay type: cell-based, Ebola virus; conditions: for IC50: Zaire ebolavirus, HeLa Kyoto, 48 h, read-out: IC50 EBOV
HeLa Kyoto cells [5] = conditions: human
HIV-1 = assay: microbe, parasite or virus in culture; assay type: cell-based, human immunodeficiency virus type 1; conditions: for IC50 HIV: virus, HeLa TZM-bl, 24 h; for IC50: Human immunodeficiency virus 1, 24 h, read-out: IC50 HIV
VACV = assay: microbe, parasite or virus in culture; assay type: cell-based, vaccinia virus; conditions: for IC50: Orthopoxvirus vaccinia, HeLa Kyoto, 8 h, read-out: IC50 VACV
HSV-1 = assay: microbe, parasite or virus in culture; assay type: cell-based, herpes simplex virus 1; conditions: 8 h; for IC50: Human alphaherpesvirus 1, Vero, read-out: IC50 HSV (Vero); for IC50 HSV (Vero): virus, Vero cells
ZIKV = assay: microbe, parasite or virus in culture; assay type: cell-based, Zika virus; conditions: for IC50: Zika virus, Huh-7, read-out: IC50 ZIKV
RABV VLP = assay: microbe, parasite or virus in culture; assay type: cell-based, rabies virus; conditions: for IC50: Lyssavirus rabies, HeLa Kyoto, 24 h, read-out: IC50 RABV
VSV VLP = assay: microbe, parasite or virus in culture; assay type: cell-based, vesicular stomatitis virus; conditions: Vesicular stomatitis virus, HeLa Kyoto, 24 h, read-out: IC50 VSV
HCV = assay: microbe, parasite or virus in culture; assay type: cell-based, hepatitis C virus; conditions: Hepatitis C virus, Huh7.5, read-out: IC50 HCV
H5N1 VLP = assay: microbe, parasite or virus in culture; assay type: cell-based, influenza H5N1; conditions: for IC50: Influenza A virus, H5N1, HeLa Kyoto, 48 h, read-out: IC50 H5N1
in vitro [6] = conditions: human
YF17D = assay: organism not typed; assay type: cell-based, yellow fever 17D; conditions: Huh-7, read-out: IC50 YF17D
in vitro [7] = conditions: human, % viability (SFV screen)
DENV-3 = assay: microbe, parasite or virus in culture; assay type: cell-based, dengue virus; conditions: Dengue virus, DENV3, Huh-7, read-out: IC50 DENV-3
DENV-1 = assay: microbe, parasite or virus in culture; assay type: cell-based, dengue virus; conditions: Dengue virus, DENV1, Huh-7, read-out: IC50 DENV-1
SINV = assay: microbe, parasite or virus in culture; assay type: cell-based, Sindbis virus; conditions: Sindbis virus, HeLa Kyoto, read-out: IC50 SINV
Huh7 cells [8] = conditions: human
[9] = system: Renilla luciferase expression (protein synthesis); assay type: cell-based
SFV E1 trimer formation = conditions: HeLa Kyoto, MOI 100; Chloroquine 100 μM
HeLa Kyoto cells [10] = conditions: human, 10 µM
VSV_Blam_VLP fusion = assay: microbe, parasite or virus in culture; assay type: cell-based; conditions: Vesicular stomatitis virus, HeLa Kyoto, read-out: Inhibition of VSV_Blam_VLP fusion compared to DMSO controls
[11] = read-out: IC50 DENV-2 (7 + 17 h)

SMILES | inhibition at 10 µM (DENV-2) | inhibition at 10 µM (SFV [1]) | Activity when added before SFV or 30 and 60 min after internalisation (SFV [2]) | Time of Addition (SFV [2]) | Inhibition of DID-SFV de-quenching (in words) [3] | TC50 DENV-2 (7 + 17 h) (Huh7 cells [4]) | TC50 DENV-2 (24 h) (Huh7 cells [4]) | Viruses Inhibited (viruses/VLPs tested) | IC50 (EBOV VLP) | TC50 SFV (7 h) (HeLa Kyoto cells [5]) | IC50 (DENV-2; [11]) | IC50 (DENV-2; read-out: IC50 DENV-2 (24 h)) | IC50 (SFV [1]) | IC50 (VSV VLP) | IC50 (HCV) | viability at 10 µM (in vitro [6]) | IC50 (YF17D) | viability at 10 µM (in vitro [7]) | IC50 (DENV-1) | IC50 (SINV) | other results
CCCCc1oc2ccccc2c1C(=O)c1cc(I)c(OCCN(CC)CC)c(I)c1 [Amiodarone, Amiodarone hydrochloride] | 92.9% | 85.5% | act exclusively before (or at the stage of) fusion | Before fusion | Intermediate levels of inhibition | 40.6 µM | ~25.5 µM | Endosomal pH-dep. |  |  |  |  |  |  |  |  |  |  |  |  | 
CCN(CC)Cc1cc(Nc2ccnc3cc(Cl)ccc23)ccc1O [Amodiaquine, Amodiaquine dihydrochloride dihydrate] | 92.1% | 73.3% | act exclusively before (or at the stage of) fusion | Before fusion | Intermediate levels of inhibition | 44.2 µM | 18.4 µM | Endosomal pH-dep. | 0.9 µM | >50 µM | 12.7 µM | 17.2 µM | 8.5 µM | 11.2 µM | 4.2 µM | 79% | 5.3 µM | 115% | ~24.8 µM | 11.3 µM | TC50 SFV (7h) (HeLa Kyoto cells [5]): >50000 µM; IC50 HIV (HIV-1): No inhibition; IC50 VACV (VACV): No inhibition; IC50 (HSV-1): 28.2 µM; IC50 ZIKV (ZIKV): No inhibition; IC50 (RABV VLP): 23.5 µM; IC50 (H5N1 VLP): 13.6 µM; IC50 (DENV-3): ~25 µM
CO/C1=C\C(C)=C\[C@@H](C)[C@@H](O)[C@@H](C)C/C(C)=C/C=C/[C@H](OC)[C@@H]([C@@H](C)[C@@H](O)[C@H](C)[C@@]2(O)C[C@@H](O)[C@H](C)[C@@H](C(C)C)O2)OC1=O [Bafilomycin] |  |  |  |  | Strong inhibition of de-quenching |  |  |  |  |  |  |  |  |  |  |  |  |  |  |  | 
CC(C)COCC(CN(Cc1ccccc1)c1ccccc1)N1CCCC1 (stereo not shown) [Bepridil, Bepridil hydrochloride] | 97.8% | 91.2% | act exclusively before (or at the stage of) fusion | Before fusion | Intermediate levels of inhibition | ~48.8 µM | ~23.4 µM | Endosomal pH-dep. | 0.8 µM | 34.9 µM | 15.2 µM | 12.1 µM | 9.5 µM | 10.4 µM | ~12.4 µM | 48.7% | 7.1 µM | 71.3% | ~20 µM | 14.6 µM | TC50 SFV (7h) (HeLa Kyoto cells [5]): 34900 µM; IC50 HIV (HIV-1): No inhibition; IC50 (VACV): 26.8 µM; IC50 HSV (Vero) (HSV-1): No inhibition; IC50 (ZIKV): ~25.2 µM; IC50 (RABV VLP): 6.9 µM; IC50 (H5N1 VLP): 8.2 µM; IC50 (DENV-3): ~20 µM
CNc1ccc2oc(C[C@H]3O[C@@]4(CC[C@H]3C)O[C@H]([C@H](C)C(=O)c3ccc[nH]3)[C@H](C)C[C@H]4C)nc2c1C(=O)O [Calcimycin] | 100% | 91.4% |  |  |  |  |  | All tested | 0.5 µM | 4.1 µM | 4.4 µM | 0.38 µM | 0.6 µM | 0.1 µM | 1.45 µM | 40% | 0.4 µM | 34.4% | 4.3 µM | 2.1 µM | TC50 SFV (7h) (HeLa Kyoto cells [5]): 4100 µM; IC50 (HIV-1): 2.5 µM; IC50 (HSV-1): < 0.5 µM; IC50 (ZIKV): 17.1 µM; IC50 (RABV VLP): 0.7 µM; IC50 (H5N1 VLP): 0.4 µM; TC50 DENV-2 (7 + 17 h) (Huh7 cells [8]): >50 µM; TC50 DENV-2 (24 h) (Huh7 cells [8]): 6.7 µM; Decrease of Renilla signal (protein synthesis) [9]: more than 50%; Inhibition of protein synthesis at lower concentrations [9]: lose their inhibitory activity on protein synthesis
CCN(CC)CCCC(C)Nc1ccnc2cc(Cl)ccc12 (stereo not shown) [Chloroquine] |  |  |  |  |  |  |  |  |  |  |  |  |  |  |  |  |  |  |  |  | SFV E1 trimer formation (SFV E1 trimer formation): prevented trimer formation
C=C1C(=O)O[C@H]2[C@H]1CC/C(C)=C/CC[C@@]1(C)O[C@@H]21 [Parthenolide] | 91.2% | 101% | minor but reproducible decrease in activity | Before and after fusion |  |  |  | Unclear pattern |  |  | 12.2 µM | 7.5 µM | 3.3 µM | 2.6 µM | 5.6 µM | 71.4% | 6.4 µM | 56.8% | 10 µM | 3.2 µM | IC50 EBOV (EBOV VLP): Toxic; TC50 SFV (7 h) (HeLa Kyoto cells [5]; 7 h): 11.7 µM; TC50 SFV (7h) (HeLa Kyoto cells [5]; 7 h): 11700 µM; IC50 (HIV-1): 3.7 µM; % viability (SFV screen) (HeLa Kyoto cells [10]): 74.22%; IC50 (VACV): 5 µM; IC50 HSV (Vero) (HSV-1): No inhibition; % inhibition (SFV screen) (SFV [1]; 10 µM): 98.23%; IC50 (ZIKV): 6.1 µM; IC50 (RABV VLP): 3.8 µM; IC50 (H5N1 VLP): 19.4 µM; TC50 DENV-2 (7 + 17 h) (Huh7 cells [8]): 35.8 µM; TC50 DENV-2 (24 h) (Huh7 cells [8]; 24 h): 11.9 µM; IC50 (DENV-3): 15.8 µM
O=C(c1ccc(OCCN2CCCCC2)cc1)c1c(-c2ccc(O)cc2)sc2cc(O)ccc12 [Raloxifene, Raloxifene hydrochloride] | 80% | 87.7% | minor but reproducible decrease in activity | Before and after fusion | Intermediate levels of inhibition | 24.8 µM | ~22.63 µM | Unclear pattern | 1.4 µM | >50 µM | 5.7 µM | 9.8 µM | 15.1 µM | 12.7 µM | 3.9 µM | 60.4% | 7.8 µM | 92% | 8.8 µM | 30.6 µM | TC50 SFV (7h) (HeLa Kyoto cells [5]): >50000 µM; IC50 HIV (HIV-1): No inhibition; IC50 (VACV): 20 µM; IC50 (HSV-1): 23.5 µM; IC50 RABV (RABV VLP): No inhibition; IC50 H5N1 (H5N1 VLP): No inhibition; inhibition at 10 µM (VSV_Blam_VLP fusion): > 50%; IC50 (DENV-3): 5.3 µM
